# Data as given in patent US20250332183A1, “COMPOSITIONS AND METHODS FOR THE STIMULATION OF INTERMEDIATE MACROPHAGES AND TREATMENTS THEREWITH” (priority 2024, published 2025).
# “Also recorded” adds a separate entry of the source.
# Key:
# [1] = test system: preterm lamb model of BPD; experiment: Survival and growth in mechanically ventilated preterm lamb BPD model; type: in vivo
# Text: Study timeline. FIGS. 1A and 1B show the timeline for the two-endpoint study using two groups of PT lambs. The first endpoint used PT lambs managed by IMV for 7d, followed by extubation to noninvasive respiratory support (NRS) for up to 3d of life (DOL7-10). At that time, terminal tissues were collected. The second endpoint used the same management protocol, followed by weaning the lambs from respiratory support and having them live in the lamb intensive care unit as former PT (FPT) lambs for 2 months corrected postnatal age (3 months chronological age, DOL 90). The rationale for the 2-month corrected postnatal age for FPT lambs is when sheep are weaned from milk, equivalent to about 12-18 months for humans. Methods for the FPT lamb model have been reported.^14,17
# PT lamb model and methods for all outcome measures. Surgical preparation and management of lamb groups. Delivery and clinical management methods for PT lambs (6-8) and FPT lambs (3, 4). Briefly, time-pregnant ewes that had single or twin fetuses at ˜128d (˜85%) gestation (term ˜150d gestation) were used (main FIGS. 1A and 1B). The fetuses were exposed to antenatal steroids (dexamethasone) at ˜48 h and ˜24 h before Cesarean-section (exit-procedure) delivery. […]
# TLR4 pathway = experiment: Western blot of TLR4 pathway proteins in hPBMC and CBMCs; type: cell-based, human; details: 100 μM, alone and with LPS 50 ng/mL
# Method: FIGS. 14A to 14D show Western Blot analysis for quantification of TLR4 pathway proteins and densitometry of (FIGS. 14A-FIG. 14C) using adult hPBMC and (FIG. 14D) CBMCs. After treatment with AVR-48 [100 μM], LPS [50 ng/mL], and in combination indicates AVR-48 activates TLR4 pathway via increasing phospho-MyD88 and phospho-TTRAP, with no activation via TRAM, and inhibiting the phosphorylation of the NF-kB pathway.
# (§1) CBMCs were treated with either AVR-123 [100 μM], LPS [50 ng/mL] or AVR-123+LPS for 24 h. […] (FIG. 23G) AVR-123 decreases phosphorylated NFkB alone and when combined with LPS in CBMCs via western blot analysis. N=3, One-way ANOVA.
# [2] = Clinical biochemistry and physiological parameters of treated lambs; type: in vivo, lamb
# Method: Arterial blood and free-fall urine samples were collected every 24 h and analyzed for indicators of liver and kidney function (Associated Regional and University Pathologists (ARUP) Laboratories, Salt Lake City).
# Clinical biochemistry. Plasma and urine samples were analyzed by Associated Regional and University Pathologists (ARUP) at the University of Utah. Plasma renal function parameters are urea nitrogen and creatinine. Plasma hepatic function parameters are alkaline phosphatase, aspartate aminotransferase, alanine aminotransferase, total protein, albumin, bilirubin total, and direct bilirubin.
# Physiological parameters for lambs in the early and late-stage studies. Physiology results were obtained including cardiovascular physiology, temperature, respiratory rates, indices for oxygenation, ventilation indices, plasma pH, bicarbonate, base excess, plasma electrolytes, plasma glucose, hematocrit (Hct), total serum protein (Tsp), lactate, enteral feeding, milk residual, and hematology for early and late-stage studies.
# hPBMCs = experiment: Macrophage lineage in hPBMCs over 3, 7 and 10 days; type: cell-based, human; details: 100 μM
# mice = experiment: Ovalbumin vaccination mouse model with CFA/IFA; type: in vivo; details: AVR-48 along with Ovalbumin±CFA/IFA, day 28
# Method: Study Design: N=4/per group (Balbc/6J, 6-7 months old). Group-1: (OVA+CFA) 1st dose; (OVA+IFA) 2nd dose; OVA-3rd dose; Group 2: OVA+CFA+AVR-48 1st dose; OVA+IFA+AVR-48 2nd dose; OVA+AVR-48 3rd dose; and Group 3: OVA+IFA+AVR48 1st dose; OVA+IFA+AVR-48 2nd dose; OVA+AVR-48 3rd dose.
# Outcome measures: Immune cell quantification (FACS) in the spleen and IgG in serum (ELISA).
# In vivo study: In one study, C57Bl/6J mice (n=4/group) were dosed intramuscularly (IM) with either complete Freund's adjuvant (CFA) or incomplete Freund's adjuvant (IFA) along with AVR-48 for a 28-day study using a prime-boost-boost regimen. In the second study, mice were dosed with MPLA and Flu-peptide using only the priming dose regimen (no booster). Splenic immune cells and plasma immunoglobin concentrations were assessed at day 28.
# [3] = test system: preterm lamb model of BPD; experiment: Respiratory gas exchange / oxygenation and ventilation indices in ventilated preterm lambs; type: in vivo
# Method: For dose-optimization, preterm (PT) lambs were delivered at ˜128d (d; saccular stage of lung development; ˜85% gestation) after maternal antenatal steroids exposure. […] After delivery and surfactant administration, PT lambs were maintained on invasive mechanical ventilation (IMV) for 7d followed by 3d noninvasive respiratory support. For the early-stage study, outcomes were determined for PT lambs over DOL1-10. For the late-stage study, outcomes were determined for former preterm (FPT) lambs (vehicle, AVR-48 treated) that were weaned from respiratory support after 10d and were maintained in the lamb intensive care unit for a further 80d. Outcomes included functional, structural, molecular, and neurobehavioral assessments. Term reference lambs that were never ventilated were used as developmental references for the FPT lambs.
# Arterial blood gases were obtained starting at 15 min of postnatal life and taken every 15 min for the first 90 min of postnatal life. FiO2 was decreased to attain a target oxygenation of O2 saturation 88-94% by pulse oximetry (Model SurgiVet V9200IBP/Temp, Smith Medical ASD, Inc., St. Paul, MN). PIP was adjusted to attain a target PaCO2 between 45 and 60 mmHg. The resultant pH range was between 7.25-7.35.
# Study design. A randomized, blinded, placebo-controlled study design was used for both endpoints. For each endpoint study, one group of PT lambs was treated with vehicle (saline, intravenously, iv, over about 10 min) for 7d and thus served as control. Another group of PT lambs was treated iv with AVR-48 for 7d. Either treatment was started at 6 h of postnatal life to allow the PT lambs to stabilize after Cesarean-section delivery and resuscitation physiologically and to permit initiation of ventilator-induced lung injury. The inventors relied on visual identification of biological sex at the time of delivery in the absence of an ultrasound unit in the lamb intensive care unit. The inventors tracked sex as a biological variable, but the study could not assess differences in outcomes based on sex because of small sample sizes.
# [4] = test system: cord blood mononuclear cells (CBMCs); experiment: Cytokine profile in LPS-challenged CBMCs; type: cell-based, human; details: compound 100 μM + LPS 50 ng/mL vs LPS treated cells
# Method: FIGS. 15A TO 15F show the AVR-48 cytokine profile in CBMCs. Cells treated with AVR-48 [100 μM], LPS [50 ng/mL] and AVR-48+LPS show a decrease (˜2-4-fold) in cytokine signal in (FIG. 15A) TNF-α, (FIG. 15B) IL-1β, (FIG. 15C) IL-10, (FIG. 15D) IL-12, (FIG. 15E) IL-6, and (FIG. 15F) IL-8, and indicates a reduced […] response as compared to LPS treated cells solo. N=3, One-way ANOVA was used for analysis.
# as §1
# [5] = early-stage study DOL 1-7, vs vehicle
# [6] = early-stage study, PT lambs, 3.0 mg/kg, vs vehicle
smiles,measurement,setting,value
CC(=O)NC1C(Oc2ccc([N+](=O)[O-])cc2)OC(CO)C(O)C1O (stereo not drawn) [AVR-48],survival,"[1]; early-stage study, PT lambs",~100%
same,survival,"[1]; late-stage study d10-d90, FPT lambs, 3.0 mg/kg iv every 12 h DOL1-7",80%
same,body weight,"[1]; late-stage study, FPT AVR-48 lambs vs FPT vehicle lambs",significantly increased
same,activation via TRAM,TLR4 pathway,no activation
same,phospho-MyD88,TLR4 pathway,increasing
same,phospho-TTRAP,TLR4 pathway,increasing
same,clinical parameters (plasma renal and hepatic function),[2]; AVR-48 treated lambs,within the normal range
same,"physiological outcomes (cardiovascular, temperature, respiratory rates, plasma chemistry, feeding, hematology)",[2]; early and late-stage studies,no adverse effect
same,Hematology,[2]; [5],No statistical difference
same,"plasma glucose, Hct, Tsp, and lactate",[2]; [5],No statistical difference
same,"plasma pH, bicarbonate, and BE",[2]; [5],No statistical difference
same,temperature or respiratory rate,[2]; [5],No statistical difference
same,systolic blood pressure,"[2]; early-stage study, DOL 6, vs vehicle, not observed on any other days",higher systolic blood pressure
same,volume of tolerable enteral feeding and residual in the stomach,[2]; in vivo,No statistical difference
same,macrophage lineage,hPBMCs; day 3 (IFN-γ high CD206 high),highest % of intermediate macrophage
same,macrophage lineage,hPBMCs; day 7 (IFN-γ low CD206 high),polarizing to M2 phenotype
same,macrophage lineage,hPBMCs; day 10 (IFN-γ high CD206 low),finally to M1
same,CD138+/CD38+/CD27+ plasma cells in mouse spleen,mice,Increased
same,IgG in serum,mice,Increased
same,BPD-like symptoms,"[3]; 10d period, dose escalation 0.1-9.0 mg/kg/dose",diminished in a dose-related manner
same,respiratory severity score (RSS),"[3]; early-stage pilot, PT lambs, 1.0 mg/kg iv every 12 h",improved moderately
same,FiO2 and PaO2,[3]; [5],No statistical difference
same,PIP and PaCO2,[3]; [5],No statistical difference
same,respiratory severity score (RSS),"[3]; early-stage study, PT lambs, 3.0 mg/kg iv every 12 h, vs vehicle, 3 mg/kg",Significant improvements; also recorded: significantly improved
same,Alveolar-arterial (A-a) gradient,[3]; [6],significantly improved
same,SpO2/FiO2 (SF) ratio,[3]; [6],significantly improved
same,oxygenation index,[3]; [6],significantly improved
same,decrease in IL-1β,[4],2-4 fold
same,decrease in IL-6,[4],2-4 fold
same,decrease in IL-8,[4],2-4 fold
same,decrease in IL-10,[4],2-4 fold
same,decrease in IL-12,[4],2-4 fold
same,decrease in TNF-α,[4],2-4 fold
